Experimental data from paper PMC11823679, “Protamine protects against vancomycin-induced kidney injury” (Antimicrobial Agents and Chemotherapy, 2025).
“Also recorded” adds a separate entry of the source.

What was measured:
[1] = in vivo; cited from earlier work
Method: Additional work i ... || Despite the promise of protamine as a new treatment approach, this study is subject to several limitations. First, our study was performed in rats. While the rat model has shown strong relevance to the human condition ([14]) with respect to VAN, clinical trials are necessary to confirm the effect. Second, protamine delayed kidney injury by 1–3 days; however, a multi-pronged approach may be needed to fully suppress injury in vancomycin therapy that exceeds 2 days. Third, as noted above, protamine is not a viable therapeutic for patients who require heparin. Fourth, protamine itself is associate ...

OCT2 = OCT2 inhibition study (HEK cells, metformin substrate); assay type: cell-based; settings: for Inhibition of OCT2 (in words): metformin 100 µM
Method: (§1) Organic anion transporter (OAT1 and OAT3) and OCT2 inhibition studies with protamine sulfate were performed by Eurofins Scientific (St. Charles, MO, USA) as previously described ([38], [39]). Protamine sulfate was dissolved in DMSO to 1.0E-02 M and tested concurrently with p-aminohippurate 10 µM (substrate) for OAT1, ranitidine 10 µM (substrate) for OAT3, and metformin 100 µM (substrate) for OCT2. A pre-incubation time of 30 minutes was used, followed by 20 minutes of incubation with the substrate. CHOK1 cells were used in OAT1 and 3 experiments, and HEK cells were used in OCT2 experiments. The percentage of inhibition was calculated vs the percentage of control. The IC50 value (concentration causing a half-maximal inhibition of the control value) was determined by nonlinear regression analysis of the concentration-response curve from a Hill equation.
(§2) No data were excluded as outliers.

Urinary KIM-1 = Urinary KIM-1 kidney injury in rats given vancomycin and/or protamine
Method: Male Sprague-Dawley rats (n = 19; age 8–10 weeks; 268–304 g; Envigo, Indianapolis, IN, USA) underwent double jugular catheterization ([33]) (Fig. 3A). Surgery was performed under ketamine (100 mg/kg of body weight) and xyalzine (10 mg/kg of body weight) anesthesia with buprenorphine (0.02 mg/kg of body weight) given post-operatively for pain management. Animals were allowed to recover 4 days before the administration of any drug. Animals were housed in metabolic cages starting 1 day prior to day 0 with access to food and water ad libitum for the duration of the study (Fig. 3B).
Animals were divided into three experimental treatment protocols. Using a dedicated jugular vein for dosing, the animals received clinical grade intravenous protamine and/or vancomycin in doses allometrically scaled to humans according to the following protocols: (i) protamine sulfate (1.5 mg/kg of body weight) and vancomycin (150 mg/kg of body weight) (n = 6); (ii) protamine only (1.5 mg/kg of body weight) with saline sham (sham for volume of vancomycin) (n = 7); or (iii) vancomycin only (150 mg/kg of body weight) with saline sham (sham for volume of protamine) (n = 6) ([34][–][36]). Saline sham was given to match the volumes of protamine and vancomycin doses to maintain euvolemia. On day 0, all animals received only iohexol (51.8 mg/day) intravenously to establish baseline GFR measurements. Drugs were administered as described above by treatment protocols to all groups on days 1–4. Infusion times for each of the drugs include (i) protamine sulfate, 5 minutes; (ii) vancomycin and iohexol, 2 minutes; and (iii) saline sham, 5 or 2 minutes depending on what the sham was replacing.
Urine samples were collected daily, and volumes were measured starting from day 0 to day 4. Samples were centrifuged at 500 g for 10 minutes, and the resulting supernatant was aliquoted (1.5 mL) and stored at −80°C for renal biomarker analysis later.
Urinary samples were analyzed for KIM-1 using the Milliplex MAP Rat Kidney Toxicity Magnetic Bead Panel 1 (EMD Millipore Corporation, Charles, MO, USA) according to the manufacturer’s directions and as previously described ([34], [36], [37]). Briefly, neat urine aliquots were mixed with monoclonal antibody-coated magnetic microbeads (Bead Panel 1) and run on a 96-well plate, which also included a standard curve. Biomarker data were acquired, and concentrations were analyzed using Belysa Immunoassay Curve-Fitting Software V1 (MilliporeSigma, Darmstadt, Germany). The amount of urinary KIM-1 excreted over the 24-h collection period was obtained by multiplying the urinary concentration by 24-h urinary volume.
An omnibus test, i.e., joint tests (multi-degree of freedom) of the interaction and main effects, which is similar to the F test in ANOVA, was used initially (STATA 17.0 BE, StataCorp LLC, College Station, TX, USA). Only models with significant interaction at P < 0.05 were selected for post hoc analysis (i.e., identification of the difference between treatment groups and days). Margins were calculated for a full factorial of the variables, i.e., main effects for each variable and interactions. Referent groups were pre-treatment baseline values and protamine alone as a treatment, except where noted. […] LOWESS graphs were produced in R version 4.2.2 using ggplot2. […] All tests were two-tailed; a P < 0.05 was required for statistical significance. Graphs for cellular studies were generated using GraphPad version 9.3.1 and were fit with a log(inhibitor) vs normalized response function after log transformation.

OAT3 = OAT3 inhibition study (CHOK1 cells, ranitidine substrate); assay type: cell-based; settings: for Inhibition of OAT3 (in words): ranitidine 10 µM
Method: as §1, §2

opossum kidney cells = settings: cited from earlier work
Description: Based on chemical structure, we hypothesized that protamine might block megalin and decrease VAN. While relatively little information is available on the megalin-binding capacity of protamine, protamine shares binding sites with heparin (which is the current target for FDA-approved use) and megalin ([30], [31]). […] Megalin antagonists ... || Originally derived from salmon fish sperm (salmine), protamine is a highly positively charged protein consisting of 32 amino acids. Currently, it is widely used as an effective agent to neutralize heparin using electrostatic bonds made between the cationic arginine groups of protamine and the anionic heparin in a 1:1 ratio ([6]). Specifically, protamine shares binding sites with heparin (current target for FDA-approved use) and megalin ([30], [31]). On this note, a clinical limitation for the use of protamine arises for patients who require heparin infusions, such as post-diabetic foot infecti ...

OAT1 = OAT1 inhibition study (CHOK1 cells, p-aminohippurate substrate); assay type: cell-based; settings: for Inhibition of OAT1 (in words): p-aminohippurate 10 µM
Method: as §1, §2

[2] = CHOK1 cells, listed as protamine

IC50 (OCT2; HEK cells, metformin 100 µM substrate, pre-incubation 30 minutes, 20 minutes with substrate, protamine sulfate in DMSO, Eurofins): 43 µM
IC50 ratio protamine vs verapamil (OCT2; OCT2): 5.2 times higher
Inhibition of OCT-2 (OCT2; at similar concentrations (to 0.1 mM) of protamine, Fig. 6): at least 50%
IC50 (OAT3; CHOK1 cells, ranitidine 10 µM substrate, pre-incubation 30 minutes, 20 minutes with substrate, protamine sulfate in DMSO, Eurofins): 100 µM
IC50 ratio protamine vs probenecid (OAT3; OAT3): 58.8 times higher
Inhibition of OAT-3 (OAT3; at 0.1 mM protamine, Fig. 6): < 50%
IC50 (OAT1; CHOK1 cells, p-aminohippurate 10 µM substrate, pre-incubation 30 minutes, 20 minutes with substrate, protamine sulfate in DMSO, Eurofins): 100 µM
IC50 ratio protamine vs probenecid (OAT1; OAT1): 62.5 times higher
Inhibition of OAT-1 (OAT1; at 0.1 mM protamine, Fig. 6): < 50%
Substance: Protamine
Safety liabilities (in words) [1]: severe hypotension and anaphylactoid-like reactions
Toxicities (in words) [1]: cardiopulmonary dysfunction and shock as well as antibody-mediated hypersensitivity reactions
Inhibition of OCT2 (in words) (OCT2; HEK cells): does not appear to have significant inhibition on OAT1, OAT3, or OCT2
Inhibition of OCT2 (in words) (OCT2; HEK cells, listed as protamine): No substantial inhibition; also recorded: does not have a significant inhibition on OAT1, OAT3, or OCT2 except at extremely high concentrations; also recorded: minor inhibition
Protective effect against vancomycin-associated nephrotoxicity (in words) (Urinary KIM-1; addition of protamine to vancomycin): provides a protective effect against vancomycin-associated nephrotoxicity
Delay of vancomycin-induced kidney injury as defined by urinary KIM-1 (Urinary KIM-1; protamine added to vancomycin therapy): 1 to 3 days
KIM-1 change from baseline of day 1 (in words) (Urinary KIM-1; rat, in vivo): did not have a KIM-1 increase over the 4 days
KIM-1 compared to protamine alone (in words) (Urinary KIM-1; rat, in vivo): did not experience this increase on day 2
KIM-1 compared to vancomycin alone (in words) (Urinary KIM-1; rat, in vivo): numerically similar to animals that received vancomycin alone
Injury prevention (in words) (Urinary KIM-1; urinary KIM-1, protamine with vancomycin): a full day of injury prevention
Inhibition of OAT3 (in words) (OAT3; CHOK1 cells): does not appear to have significant inhibition on OAT1, OAT3, or OCT2
Inhibition of OAT3 (in words) (OAT3; [2]): No substantial inhibition; also recorded: does not have a significant inhibition on OAT1, OAT3, or OCT2 except at extremely high concentrations; also recorded: little to no inhibition
Entry into kidney epithelial cells (in words) (opossum kidney cells): enters kidney epithelial cells and localizes in the cytoplasm via receptor-mediated endocytosis
Inhibition of gentamicin uptake (in words) (opossum kidney cells; cultured opossum kidney cells that expressed megalin and cubilin, ref Nagai and colleagues ([32])): inhibited the uptake of gentamicin
Prevention of gentamicin accumulation (in words) (opossum kidney cells; kidney epithelial cells): has demonstrated prevention of gentamicin accumulation
Inhibition of OAT1 (in words) (OAT1; CHOK1 cells): does not appear to have significant inhibition on OAT1, OAT3, or OCT2
Inhibition of OAT1 (in words) (OAT1; [2]): No substantial inhibition; also recorded: does not have a significant inhibition on OAT1, OAT3, or OCT2 except at extremely high concentrations; also recorded: little to no inhibition
